Read-outs that look alike come from different tables or passages of the source.
How the values were obtained:
[1] = system: rat Cyp11B enzyme (rat adrenal mitochondria); assay: CYP11B enzymatic assay (% inhibition at 100 nM) (Biological Example 9); type: biochemical; settings: for Biological Example No. 9: CYP11B percent inhibition at 100 nM: 100 nM compound, cortisol by ELISA
Summary of the method: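 Sprague Dawley rat adrenal mitochondria were incubated with compound at 100 nM, 0.5 mM NADPH and 0.1 μM 11-deoxycortisol (pH 7.4 Tris buffer) for 60 min at 37 °C. Cortisol was measured by ELISA and corrected by subtracting the no-NADPH background. % inhibition is relative to the no-compound reaction.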

[2] = target: T1, Cyp21 enzyme (Human HEK 293-Cyp21 stable transfected cells) (Homo sapiens, UniProt P08686); assay: CYP21-HEK293 enzymatic assay (% inhibition at 100 nM) (Biological Example 10); type: cell-based; settings: HEK 293-Cyp21 cells
T1 construct: expressed in transfected cells
T1 sequence (P08686 1-495): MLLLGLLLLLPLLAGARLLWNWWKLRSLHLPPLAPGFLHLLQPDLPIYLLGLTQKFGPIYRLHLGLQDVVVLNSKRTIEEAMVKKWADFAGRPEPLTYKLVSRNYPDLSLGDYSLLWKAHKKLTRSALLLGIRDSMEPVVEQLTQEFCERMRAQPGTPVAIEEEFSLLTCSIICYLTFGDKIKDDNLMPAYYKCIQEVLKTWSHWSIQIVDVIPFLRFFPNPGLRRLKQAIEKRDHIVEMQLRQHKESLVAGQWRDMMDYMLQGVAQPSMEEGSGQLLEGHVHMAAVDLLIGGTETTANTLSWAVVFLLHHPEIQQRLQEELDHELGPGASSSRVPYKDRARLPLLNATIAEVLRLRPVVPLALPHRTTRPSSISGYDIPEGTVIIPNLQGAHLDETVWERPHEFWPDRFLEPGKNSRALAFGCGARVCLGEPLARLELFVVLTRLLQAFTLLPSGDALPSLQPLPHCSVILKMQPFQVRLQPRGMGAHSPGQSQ
Summary of the method: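 HEK293 cells stably expressing human Cyp21 in DMEM + 10% FBS got compound (100 nM reported) for 5 h at 37 °C; 1% methanol served as mock. Progesterone substrate (final 10 μM) was then added for 20 h. DOC in the medium was measured by competitive ELISA (OD 450 nm) against a standard curve.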

[3] = 100 nM compound, read-out: Biological Example No. 10: CYP21-HEK293 percent inhibition at 100 nM

Row | SMILES | Biological Example No. 9: CYP11B percent inhibition at 100 nM [1] | inhibition at 0.1 µM [2, 3] | CYP11B enzymatic assay % inhibition at 100 nM (Biological Example No. 9) ([1]; compound at 100 nM) | inhibition at 0.1 µM ([2]; compound at 100 nM, read-out: CYP21-HEK293 enzymatic assay % inhibition at 100 nM (Biological Example No. 10))
1 | C[C@]12CC[C@H]3[C@@H](CC=C4C[C@@H](O)CC[C@@]43C)C1=CC=C2c1cccnc1 [Compound 79, (3S,10R,13S)-10,13-dimethyl-17-(pyridin-3-yl)-2,3,4,7,8,9,10,11,12,13-decahydro-1H-cyclopenta[a]phenanthren-3-ol] | T (T means the compound had a percent inhibition of less than 32% when tested at 100 nM) | < 30% |  | 
2 | C[C@]12CC(O)C[C@@H]1CC[C@@H]1[C@@H]2CC[C@]2(C)C(n3ccnc3)=CC[C@@H]12 (stereo partly drawn) [Compound 109, (3aS,5aS)-6-(1H-imidazol-1-yl)-3a,5a-dimethyl-1,2,3,3a,3b,4,5,5a,8,8a,8b,9,10,10a-tetradecahydrodicyclopenta[a,f]naphthalen-2-ol] | U (U means the compound had a percent inhibition of greater than or equal to 32%) | ≥ 30% |  | 
3 | CC(=O)NC1CC[C@@]2(C)C(=CCC3C2CC[C@]2(C)C(n4ccnc4)=CCC32)C1 (stereo partly drawn) [Compound 237, N-((10R,13S)-17-(1H-imidazol-1-yl)-10,13-dimethyl-2,3,4,7,8,9,10,11,12,13,14,15-dodecahydro-1H-cyclopenta[a]phenanthren-3-yl)acetamide] |  |  | U (U means the compound had a percent inhibition of greater than or equal to 32%) | < 30%

From patent US20130252930A1 (BIOMARIN PHARMACEUTICAL INC., priority 2010, published 2013)
